From patent publication US6028092A, “Salts of N-(4-Oxo-2-(1H-tetrazoyl-5-yl)-4H-1-benzopyran-8-yl)-4-(4-phenylbutoxy)b enzamide” (SmithKline Beecham p.l.c, priority 1995, dated 2000)
Values after ≈ are worked out from the molar mass of the structure shown. Like-named read-outs stand apart in the source and are kept apart here.

How the values were obtained:
[1] = Solubility of Compound 1 salts in water, ethanol and PEG 400; type: physicochemical
[2] = rat, in vivo, po
[3] = in vivo
[4] = In-situ solubilisation: solubility of Compound 1 in 50% acetate solution (0.1M) / 50% ethanol; type: physicochemical
Description: Although the salts of Compound 1 are freely soluble in solvents such as ethanol further improvements have been observed when the salts are prepared in situ.
Solubility of Compound 1 in 50% Acetate Solution (0.1M) and 50%
(§1) In the presence of excess acetate the salts formed in situ are freely soluble even in an aqueous alcoholic medium with a water content of 50%. With lower water contents or in the absence of water the solubility can be improved further. For example when PEG 200 (30 mL) sodium acetate (2.5 g) and Compound 1 (7.4 g) were triturated in a mortar and pestle the sodium salt of Compound 1 formed in-situ was solubilised to a concentration greater than 200 g/l.

[5] = Solubility of Compound 1 in 50% solvent systems/50% sodium phosphate (pH7) at different molarities; type: physicochemical
Description: The scope of in-situ solubilisation in terms of solvent type and buffer concentration can be seen in Table 4. In these experiments the sodium salt of Compound 1 was prepared through the presence of varying concentrations of sodium phosphate buffer solution with 50% of the test solvent.
Solubility of Compound 1 in 50% solvent systems/50% sodium
phosphate (pH7) at different molarities
No value was obtained for those N/T samples because the solvents were immiscible with the buffer solution at those concentrations.

[6] = Solubility of Compound 1 in 50% 0.1M salt solution (pH7)/50% absolute alcohol; type: physicochemical
Source text: Solubility of Compound 1 in 50% 0.1M salt solution (pH7)/50%

[7] = In-situ solubilisation of sodium salt of Compound 1 in PEG 200 by trituration with sodium acetate; type: physicochemical; conditions: organic solvent or mixture; PEG 200 (30 mL), sodium acetate (2.5 g), Compound 1 (7.4 g); read-out: concentration solubilised in-situ
Description: as §1

SMILES: O=C(Nc1cccc2c(=O)cc(-c3nnn[nH]3)oc12)c1ccc(OCCCCc2ccccc2)cc1 [Ammonium]
- Solubility in PEG 400 ([1]; PEG 400): > 10000 µg/mL
- Solubility in ethanol [1]: 9330 µg/mL
- Solubility in water ([1]; water): 280 µg/mL
- absorption, in words [2]: reasonably well absorbed
- increase of absolute bioavailability relative to the parent acid [2]: approximately tenfold
- AUC)-t or infinity ([2]; 20 mg/kg): 81490.5 ± 23670.3 µg·min/mL
- BA ([2]; 20 mg/kg): 7.15 ± 2.08%
- CMAX ([2]; 20 mg/kg): 548.5 ± 165.7 ng/mL
- TMAX ([2]; 20 mg/kg): 53.1 ± 29.8 min
- AUC)-t or infinity ([2]; 80 mg/kg): 66722.9 ± 16472.6
- BA ([2]; 80 mg/kg): 1.46 ± 0.36%
- CMAX ([2]; 80 mg/kg): 264.5 ± 64.06 ng/mL
- TMAX ([2]; 80 mg/kg): 150.5 ± 34.1 min
- bioavailability ([3]; rat, in vivo, po, 20 mg/kg, absolute bioavailability): ~7%

SMILES: O=C(Nc1cccc2c(=O)cc(-c3nnn[nH]3)oc12)c1ccc(OCCCCc2ccccc2)cc1 [Calcium]
- Solubility in PEG 400 ([1]; PEG 400): 8420 µg/mL
- Solubility in ethanol [1]: 360 µg/mL

SMILES: O=C(Nc1cccc2c(=O)cc(-c3nnn[nH]3)oc12)c1ccc(OCCCCc2ccccc2)cc1 [Compound 1, N-[4-Oxo-2-(1H-tetrazol-5-yl)-4H-1-benzopyran-8-yl]-4-(4-phenylbutoxy)benzamide]
- solubility ([4]; 0.1m ammonium acetate/ethanol 50:50, organic solvent or mixture, ammonium acetate 0.1M 50% / ethanol 50%): 11500 µg/mL (≈ 23.9 mM)
- solubility ([4]; 0.1m calcium acetate/ethanol 50:50, organic solvent or mixture, calcium acetate 0.1M 50% / ethanol 50%): 400 µg/mL (≈ 0.831 mM)
- solubility ([4]; 0.1m potassium acetate/ethanol 50:50, organic solvent or mixture, potassium acetate 0.1M 50% / ethanol 50%): 12200 µg/mL (≈ 25.3 mM)
- solubility ([4]; 0.1m sodium acetate/ethanol 50:50, organic solvent or mixture, sodium acetate 0.1M 50% / ethanol 50%): 11000 µg/mL (≈ 22.8 mM)
- solubility ([1]; water, aqueous, free acid, read-out: aqueous solubility of Compound 1 free acid): < 10 µg/mL
- TMAX ([2]; 80 mg/kg): 22.6 ± 14.9 min
- solubility ([5]; 50% ethanol/0.1m sodium phosphate, pH 7, organic solvent or mixture, 50% ethanol / 50% sodium phosphate pH7, 0.1M): 16200 µg/mL (≈ 33.6 mM)
- solubility ([5]; 50% glycerol/0.1m sodium phosphate, pH 7, organic solvent or mixture, 50% glycerol / 50% sodium phosphate pH7, 0.1M): 200 µg/mL (≈ 0.415 mM)
- solubility ([5]; 50% glycerol/0.25m sodium phosphate, pH 7, organic solvent or mixture, 50% glycerol / 50% sodium phosphate pH7, 0.25M): 50 µg/mL (≈ 0.104 mM)
- solubility ([5]; 50% glycerol/0.5m sodium phosphate, pH 7, organic solvent or mixture, 50% glycerol / 50% sodium phosphate pH7, 0.5M): 40 µg/mL (≈ 0.0831 mM)
- solubility ([5]; 50% glycofurol/0.1m sodium phosphate, pH 7, 50% glycofurol / 50% sodium phosphate pH7, 0.1M): 19500 µg/mL (≈ 40.5 mM)
- solubility ([5]; 50% methanol/0.1m sodium phosphate, pH 7, organic solvent or mixture, 50% methanol / 50% sodium phosphate pH7, 0.1M): 2200 µg/mL (≈ 4.57 mM)
- solubility ([5]; 50% methanol/0.25m sodium phosphate, pH 7, organic solvent or mixture, 50% methanol / 50% sodium phosphate pH7, 0.25M): 1100 µg/mL (≈ 2.28 mM)
- solubility ([5]; 50% methanol/0.5m sodium phosphate, pH 7, organic solvent or mixture, 50% methanol / 50% sodium phosphate pH7, 0.5M): 900 µg/mL (≈ 1.87 mM)
- solubility ([5]; 50% n-propanol/0.1m sodium phosphate, pH 7, organic solvent or mixture, 50% n-propanol / 50% sodium phosphate pH7, 0.1M): 18000 µg/mL (≈ 37.4 mM)
- solubility ([5]; 50% n-propanol/0.25m sodium phosphate, pH 7, organic solvent or mixture, 50% n-propanol / 50% sodium phosphate pH7, 0.25M): 43100 µg/mL (≈ 89.5 mM)
- solubility ([5]; 50% n-propanol/0.5m sodium phosphate, pH 7, organic solvent or mixture, 50% n-propanol / 50% sodium phosphate pH7, 0.5M): 56300 µg/mL (≈ 117 mM)
- solubility ([5]; 50% peg 400/0.1m sodium phosphate, pH 7, organic solvent or mixture, 50% PEG 400 / 50% sodium phosphate pH7, 0.1M): 20500 µg/mL (≈ 42.6 mM)
- solubility ([5]; 50% peg 400/0.25m sodium phosphate, pH 7, organic solvent or mixture, 50% PEG 400 / 50% sodium phosphate pH7, 0.25M): 23700 µg/mL (≈ 49.2 mM)
- solubility ([5]; 50% peg 400/0.5m sodium phosphate, pH 7, organic solvent or mixture, 50% PEG 400 / 50% sodium phosphate pH7, 0.5M): 26600 µg/mL (≈ 55.2 mM)
- solubility ([5]; 50% propylene glycol/0.1m sodium phosphate, pH 7, organic solvent or mixture, 50% propylene glycol / 50% sodium phosphate pH7, 0.1M): 1700 µg/mL (≈ 3.53 mM)
- solubility ([5]; 50% propylene glycol/0.25m sodium phosphate, pH 7, organic solvent or mixture, 50% propylene glycol / 50% sodium phosphate pH7, 0.25M): 700 µg/mL (≈ 1.45 mM)
- solubility ([5]; 50% propylene glycol/0.5m sodium phosphate, pH 7, organic solvent or mixture, 50% propylene glycol / 50% sodium phosphate pH7, 0.5M): 500 µg/mL (≈ 1.04 mM)
- solubility ([5]; 50% thf/0.1m sodium phosphate, pH 7, organic solvent or mixture, 50% THF / 50% sodium phosphate pH7, 0.1M): 22300 µg/mL (≈ 46.3 mM)
- solubility ([5]; 50% thf/0.25m sodium phosphate, pH 7, organic solvent or mixture, 50% THF / 50% sodium phosphate pH7, 0.25M): 49300 µg/mL (≈ 102 mM)
- solubility ([5]; 50% thf/0.5m sodium phosphate, pH 7, organic solvent or mixture, 50% THF / 50% sodium phosphate pH7, 0.5M): 101000 µg/mL (≈ 210 mM)
- half-life ([3]; rat, in vivo, iv, 3 mg/kg): 23.2 ± 28.4 min
- AUC ([3]; rat, in vivo, iv, 3 mg/kg, AUC)-t or infinity): 2850 µg·h/mL
- AUC ([3]; rat, in vivo, po, 80 mg/kg, AUC)-t or infinity): 607 µg·h/mL
- bioavailability ([3]; rat, in vivo, po, 80 mg/kg, BA): 0.8 ± 0.16%
- CMAX ([3]; rat, in vivo, po, 80 mg/kg, CMAX): 207 ± 57.2 ng/mL

SMILES: O=C(Nc1cccc2c(=O)cc(-c3nnn[nH]3)oc12)c1ccc(OCCCCc2ccccc2)cc1 [Ethylenediamine]
- solubility [6]: 1700 µg/mL

SMILES: O=C(Nc1cccc2c(=O)cc(-c3nnn[nH]3)oc12)c1ccc(OCCCCc2ccccc2)cc1 [Meglumine]
- Solubility in PEG 400 ([1]; PEG 400): 9200 µg/mL
- Solubility in ethanol [1]: 3060 µg/mL
- Solubility in water ([1]; water): 340 µg/mL
- absorption, in words [2]: evidence of enhanced absorption
- increase of absolute bioavailability relative to the parent acid [2]: approximately fourfold
- AUC)-t or infinity ([2]; 20 mg/kg): 35290.4 ± 11719.1
- BA ([2]; 20 mg/kg): 3.09 ± 1.03%
- CMAX ([2]; 20 mg/kg): 207.7 ± 112.2 ng/mL
- AUC)-t or infinity ([2]; 80 mg/kg): 59012.7 ± 17096.3 µg·min/mL
- BA ([2]; 80 mg/kg): 1.29 ± 0.37%
- CMAX ([2]; 80 mg/kg): 263.0 ± 139.5 ng/mL
- TMAX ([2]; 80 mg/kg): 97.5 ± 66.2 min
- TMAX ([3]; rat, in vivo, po, 20 mg/kg, TMAX): 53.1 min

SMILES: O=C(Nc1cccc2c(=O)cc(-c3nnn[nH]3)oc12)c1ccc(OCCCCc2ccccc2)cc1 [Sodium]
- solubility [7]: > 200000 µg/mL
- Solubility in ethanol [1]: > 10000 µg/mL
- solubility ([1]; peg 400, organic solvent or mixture, PEG 400, read-out: Solubility in PEG 400): > 10000 µg/mL
- Solubility in water ([1]; water): 40 µg/mL

SMILES: O=C(Nc1cccc2c(=O)cc(-c3nnn[nH]3)oc12)c1ccc(OCCCCc2ccccc2)cc1 [Tris]
- solubility ([6]; 50% salt solution/50% ethanol, pH 7, organic solvent or mixture, read-out: Solubility): 1600 µg/mL
